The subject of this assay is Plasmodium falciparum. Kind of assay: GSK_TCMDC: Inhibition of Plasmodium falciparum 3D7 in whole erythrocytes, using parasite LDH activity as an index of growth. In kind it is functional, organism-based. Conditions: Plasmodium falciparum, 3D7.
For the compound `CCN(CC)CCN(Cc1ccc(-c2ccc(C(F)(F)F)cc2)cc1)C(=O)Cn1c(CCc2cccc(F)c2F)nc(=O)c2ccc(C(F)(F)F)cc21`, the XC50 turned out to be 783 nM.
With `CCC[C@@H](/C=N/N(C)C(=O)OC(C)(C)C)NC(=O)[C@H](CC(C)C)NC(=O)c1cc2cccc(OC)c2o1`, the XC50 was 1080 nM.
The compound `O=C(Nc1ccc(F)cc1)NC1CCN(c2ccnc3cc(Cl)ccc23)C1` (centres undefined) came in with an XC50 of 218 nM.
As for `CCN(CCCN1CCCCC1)c1cc(C)nc(Nc2ccc3c(c2)CCC3)n1`, the XC50 was found to be 394 nM.
`CSc1ccc2nccc(Nc3ccc(Oc4ccccc4)cc3)c2c1` showed an XC50 of 871 nM.
As for `CCCN(CC1CC1)c1nc(C)nc2c(-c3ccccc3)cc(C)cc12`, the XC50 was 1020 nM.
As to `CCN(CC)S(=O)(=O)c1ccc(C=CC(=O)Nc2cc(Cl)ccc2N2CCOCC2)cc1`, the XC50 came out at 920 nM.
Compound `CC(C)c1nc2c(N)nc(N)nc2nc1N` had an XC50 of 1310 nM.
`COc1ccc2c(=NN=Cc3cccc(Cl)c3)cc(C)[nH]c2c1` registered an XC50 of 732 nM.
The compound `Cc1ccc2c(OCCN3CCC(Cc4ccc5c(c4)NC(=O)CO5)CC3)cc(F)cc2n1` gave an XC50 of 755 nM.
In the case of `O=C(Nc1ccc(Cl)c(Cl)c1)Nc1ccc2nccc(N3CCN(Cc4ccccc4)CC3)c2c1` it was 158 nM; in that of `CCOC(=O)c1nc(-c2ccc(Cl)cc2)[nH]c1NC(=S)NCCCN1CCOCC1`, 868 nM; in that of `Cc1cc(-c2cccc3c(C(=O)N4CCc5cc6nccc(N7CCN8CCC[C@H]8C7)c6cc54)cccc23)cc(C)n1`, 709 nM.
Compound `Cc1nc(N)nc(N)c1CCCOc1ccccc1Br` yielded an XC50 of 424 nM.
In the case of `COc1ccc2nc(C)cc(Nc3ccc(Cl)c(Cl)c3)c2c1` it was 441 nM; in that of `O=C(Nc1ccc(Oc2ccccc2)cc1)N1CCC(CCN2CCC(c3c[nH]c4ccccc34)CC2)CC1`, 795 nM; in that of `N=C(N)Nc1nc(-c2cccc(NC(=O)CCCCCCCON3C(N)=NC(N)=NC34CCCCC4)c2)cs1`, 43.5 nM.
In turn, `O=C(Nc1ccc(-c2cccc(-c3nc4cc(F)ccc4[nH]3)c2)cc1)Nc1ccsc1` returned an XC50 of 693 nM.
`CN(C)CCC=C1c2ccccc2Sc2c(O)cc(Cl)cc21` gave an XC50 of 277 nM.
With `CC(=O)c1c(Cc2cccc(C(F)(F)F)c2)c[nH]c1C`, the XC50 came to 346 nM.
As for `Cc1ccc(Nc2nc(-c3ccccn3)cs2)nc1`, the figure is 752 nM; as for `CN(CCS(C)(=O)=O)Cc1ccc(-c2ccc3ncnc(Nc4ccc(OCc5cccc(F)c5)c(Cl)c4)c3c2)o1`, 681 nM.
In the case of `O=C(CCc1cccnc1)Nc1ccc(-c2cccc(-c3nc4cc(F)ccc4[nH]3)c2)cc1`, the XC50 was determined as 922 nM.
As for `NS(=O)(=O)c1cccc(Nc2nccc(-c3cnn4ncccc34)n2)c1`, the figure is 661 nM; as for `COc1cccc(OC)c1OCCCOc1c(C)nc(N)nc1N`, 459 nM; as for `CCCCCCCCCCN1C(=O)C2C(CCCCNC(C)=O)NC3(C(=O)N(Cc4ccc(C(C)(C)C)cc4)c4ccccc43)C2C1=O` (centres undefined), 993 nM.
As for `O=C(Nc1ccc(Cl)c(Cl)c1)N1CCc2ccc(OCCCN3CCCCC3)cc2CC1`, the figure is 1520 nM; as for `Cc1[nH]c(C)c(-c2ccc(-c3ccc(C(F)F)cc3)nc2)c(=O)c1Cl`, 241 nM; as for `CC(C)(C)Nc1cc(C(=O)N[C@@H](Cc2ccccc2)[C@H](O)CNC2CCOCC2)cc(N2CCCCS2(=O)=O)c1`, 150 nM.
As for `c1cncc(NCc2ccc(-c3cc4ccncc4cc3OC3CCNCC3)s2)c1`, the figure is 981 nM.
Compound `O=C(c1ccc(Br)o1)N1N=C(c2cccs2)CC1c1ccc(Br)cc1` (centres undefined) came in with an XC50 of 513 nM.
In the case of `O=C(C1CC1c1ccccc1)N(Cc1ccc(-c2ccc(CNCCc3ccccc3)cc2)cc1)C1CCNCC1` (centres undefined) it was 1110 nM; in that of `Cn1nc(-c2ccc(CNC3CCc4ccccc43)cc2)c2cnc(NCCCN3CCCC3)nc21` (centres undefined), 1110 nM.
In turn, `COc1cc(F)c2ncc(Cl)c(CCN3CCC(NCc4ccc5c(c4)NC(=O)CO5)CC3)c2c1` had an XC50 of 227 nM.
Consider `O=C(Nc1ccc(-c2nc3ccccc3[nH]2)cc1)C1CCCN(CC2CC2)C1` (centres undefined), for which the XC50 is 946 nM.
`CCC(C)c1ccc(NC(=O)C(C)c2ccc([N+](=O)[O-])cc2)cc1` (centres undefined) yielded an XC50 of 176 nM.
Regarding `O=S(=O)(NCCN1CCCC1)c1ccc(-c2cccc(CNCCc3cccs3)c2)s1`, the XC50 turned out to be 705 nM.
Compound `CC(C)CCNC(=N)Nc1ccc(OCCCCCOc2ccc(NC(=N)NCCC(C)C)cc2)cc1` yielded an XC50 of 1080 nM.
`Nc1nccc2ccc(-c3cccc4ncccc34)cc12` returned an XC50 of 52.4 nM.
For the compound `COCCn1c(Sc2ncnc3sccc23)nc2ccccc21`, the XC50 turned out to be 879 nM.
As for `Cc1cc(OCCCN2CCC(NS(=O)(=O)c3ccc(Cl)c(Cl)c3)C2)c2ccccc2n1` (centres undefined), the figure is 1050 nM; as for `c1ccc2c(c1)ncn2-c1ccnc(Nc2ccncc2)n1`, 646 nM.
Regarding `COc1ccc(OC(C)CNC(=O)c2cc([N+](=O)[O-])ccc2-c2ccc(OC)cc2)cc1` (centres undefined), the XC50 was 1150 nM.
`CCCn1cc2c(ccc3nc(N)nc(N)c32)n1` showed an XC50 of 81.4 nM.
For `O=C(NCCCN1CCCCC1)c1cccc(Nc2nccc(Nc3ccc(Oc4ccccc4)cc3)n2)c1`, the XC50 is 821 nM.
Regarding `CC(C)c1ccc(NC(=O)c2cccc(CN3CCCN(CC4CCCCC4)CC3)c2)cc1`, the XC50 worked out at 710 nM.
`CC(C)C[C@H](NC(=O)c1ccc(OCCN2CCOCC2)cc1)C(=O)N[C@H](/C=N/NC(=O)OC(C)(C)C)CCc1ccccc1` returned an XC50 of 162 nM.
On to `CC1=C(C(=O)Nc2ccc(Cl)cc2)C(c2ccncc2)n2nc(C(F)(F)F)nc2N1` (centres undefined), for which the XC50 worked out at 935 nM.
In the case of `CCCCc1ccc(C(=O)Nc2ccc3nc(N4CCN(C)CC4)cc(C)c3c2)cc1` it was 1100 nM; in that of `Cc1cccc2nc(-c3ccc(-c4ccc(NC(=O)C(C)CN(C)C)cc4)cc3)[nH]c12` (centres undefined), 681 nM.
As for `CN(C)c1cc(C(=O)N[C@@H](Cc2ccccc2)[C@H](O)CNC2CCCCC2)cc2[nH]ccc12`, the figure is 1070 nM; as for `COc1ccc(Oc2ccc(-c3c(O)cc(C)nc3C)cc2)cc1`, 612 nM; as for `Nc1nccc2ccc(OC3CCCCC3)cc12`, 602 nM.
For the compound `COc1cc2c(cc1OCCN1CCC(N)CC1)N(C(=O)/C=C/c1ccccc1Cl)CC2`, the XC50 is 1120 nM.
`O=C(Nc1ccc(-c2cccc(-c3nc4cc(F)ccc4[nH]3)c2)cc1)c1ccncc1` yielded an XC50 of 719 nM.
Regarding `COc1ccc(Nc2ncc(C#N)c(Nc3ccccc3C(N)=O)n2)cc1N1CCN(C)CC1`, the XC50 was 136 nM.
The compound `COc1ccccc1CNC(=O)c1nn(-c2ccc(Cl)cc2)c(=O)c2ccccc12` yielded an XC50 of 294 nM.
`CNCCCN(C)C(=O)Oc1c(Br)c(C)nc(C)c1-c1ccc(Oc2ccc(OC(F)(F)F)cc2)cc1` returned an XC50 of 386 nM.
As for `CO/C(=C\C=C\c1cc2cc(Cl)c(Cl)cc2[nH]1)C(=O)NC1CCN(CCCc2ccccc2)CC1`, the XC50 turned out to be 767 nM.
Take `Clc1cccc(C=NN=c2cc[nH]c3ccccc23)c1`: the XC50 is 852 nM.
In turn, `CN(C)CCCN1CCN(Cc2ccc(-c3ccc(-c4nc5ccccc5[nH]4)s3)cc2)CC1` had an XC50 of 820 nM.
In the case of `COc1ccc(CN2CCC(NCc3cccc(-n4ccnc4)c3)CC2)cc1` it was 629 nM; in that of `CN(C)CCNC(=O)c1ccc(-c2ccc3c(Nc4ccccc4)c(C(N)=O)cnc3c2)cc1`, 728 nM; in that of `COc1ccc(-c2ccc(NC(=O)c3cccc(Cl)c3)cc2)cc1CN1CCCN(C)CC1`, 603 nM.
